# From ChEMBL document CHEMBL1141002, “Alpha-mercaptoketone based histone deacetylase inhibitors” (Bioorg Med Chem Lett, 2008)
# Where “and” joins values, the source holds several entries; their conditions need not be identical. Identical values can stand only once.
# Biological target: Histone deacetylase
# Assay: Inhibition of histone deacetylase in human HeLa cells assessed as induction of histone H3 hyperacetylation
# Assay type: cell-based
row,Structure (SMILES),EC50
1,CC(=O)SCC(=O)c1ccc(NS(=O)(=O)c2ccc3c(c2)OCO3)nc1,0.36 µM
2,CC(=O)SCC(=O)c1ccc(NS(=O)(=O)c2ccc3ccccc3c2)nc1,0.042 µM
3,CC(=O)SCC(=O)c1ccc(NS(=O)(=O)c2ccc3c(c2)OCCN3C)nc1,0.15 µM
4,COc1cccc(S(=O)(=O)Nc2ccc(C(=O)CSC(C)=O)cc2)c1,0.17 µM
5,CC(=O)SCC(=O)c1ccc(NS(=O)(=O)c2ccc(F)cc2)cc1,0.95 µM
6,CC(=O)SCC(=O)c1ccc(NS(=O)(=O)c2ccc(C(F)(F)F)cc2)cc1,2.1 µM
7,CC(=O)SCC(=O)c1ccc(S(=O)(=O)Nc2ccc(OC(F)(F)F)cc2)cc1,1 µM
8,CC(=O)SCC(=O)c1ccc(NC(=O)Nc2ccc(OC(F)(F)F)cc2)cc1,11.2 µM
9,CC(=O)SCC(=O)c1ccc(NS(=O)(=O)c2ccc3[nH]ccc3c2)cc1,0.059 µM
10,CC(=O)SCC(=O)c1ccc(NS(=O)(=O)c2cccc(OC(F)(F)F)c2)cc1,0.79 µM
11,COc1ccc(S(=O)(=O)Nc2ccc(C(=O)CSC(C)=O)cc2)cc1,0.05 µM
12,CC(=O)SCC(=O)c1ccc(NS(=O)(=O)c2ccc(Cl)cc2)cc1,0.28 µM
13,CC(=O)SCC(=O)c1ccc(NS(=O)(=O)c2ccc3ccccc3c2)cc1,0.029 µM
14,CC(=O)SCC(=O)c1ccc(NCc2ccc(OC(F)(F)F)cc2)cc1,1.5 µM
15,CC(=O)SCC(=O)c1ccc(NS(=O)(=O)c2ccc(C)cc2)cc1,0.1 µM
16,CC(=O)SCC(=O)c1ccc(NS(=O)(=O)c2ccccc2)cc1,0.33 µM
17,CC(=O)SCC(=O)c1ccc(NS(=O)(=O)c2ccc3c(c2)ncn3C)cc1,0.079 µM and 0.038 µM
18,CC(=O)SCC(=O)c1ccc(NS(=O)(=O)c2ccccc2Cl)cc1,0.85 µM
19,CC(=O)SCC(=O)c1ccc(NS(=O)(=O)c2ccccc2)nc1,0.15 µM
20,CC(=O)SCC(=O)c1ccc(NS(=O)(=O)c2ccc(OC(F)(F)F)cc2)cc1,0.2 µM
21,CC(=O)SCC(=O)c1ccc(C(=O)Nc2ccc(OC(F)(F)F)cc2)cc1,67.1 µM
22,CC(=O)SCC(=O)c1ccc(NS(=O)(=O)c2ccc3c(c2)ncn3C)nc1,0.24 µM
23,CC(=O)SCC(=O)c1ccc(N(C)S(=O)(=O)c2ccc(OC(F)(F)F)cc2)cc1,4.3 µM

# Other lines, results leading:
row,EC50,Structure (SMILES)
1,0.091 µM,CC(=O)SCC(=O)c1ccc(NS(=O)(=O)c2ccc3c(c2)N(C(C)=O)CC3)cc1
2,0.46 µM,CC(=O)SCC(=O)c1ccc(NS(=O)(=O)c2cccc(F)c2)cc1
3,0.082 µM,CC(=O)SCC(=O)c1ccc(NS(=O)(=O)c2ccc3c(c2)CCO3)cc1
4,0.044 µM,CC(=O)SCC(=O)c1ccc(NS(=O)(=O)c2ccc3cc[nH]c3c2)cc1
5,0.095 µM,CC(=O)SCC(=O)c1ccc(NS(=O)(=O)c2ccc3c(c2)CCO3)nc1
6,0.15 µM,CC(=O)SCC(=O)c1ccc(NS(=O)(=O)c2cccc(Cl)c2)cc1
7,0.026 µM,CC(=O)SCC(=O)c1ccc(NS(=O)(=O)c2ccc3c(c2)OCCO3)cc1
8,0.16 µM,CC(=O)SCC(=O)c1ccc(NS(=O)(=O)c2ccc3c(c2)CCN3)cc1
9,0.047 µM,CC(=O)SCC(=O)c1ccc(NS(=O)(=O)c2ccc3c(c2)NCC3)cc1
10,0.28 µM,COc1ccc(S(=O)(=O)Nc2ccc(C(=O)CSC(C)=O)cc2)cc1OC
11,0.42 µM,CC(=O)SCC(=O)c1ccc(NS(=O)(=O)c2ccc(Cl)c(Cl)c2)cc1
12,0.088 µM,CC(=O)SCC(=O)c1ccc(NS(=O)(=O)c2ccc3c(c2)OCO3)cc1
13,0.1 µM,CC(=O)SCC(=O)c1ccc(NS(=O)(=O)c2ccc3c(c2)OCCN3C)cc1

# Test system: HCT-116
# Assay: Cytotoxicity against human HCT116 cells
# Assay type: functional, cell-based
row,Structure (SMILES),EC50 [µM]
1,CC(=O)SCC(=O)c1ccc(NS(=O)(=O)c2ccc3c(c2)OCO3)nc1,5.5
2,CC(=O)SCC(=O)c1ccc(NS(=O)(=O)c2ccc3ccccc3c2)nc1,4.9
3,CC(=O)SCC(=O)c1ccc(NS(=O)(=O)c2ccc3c(c2)OCCN3C)nc1,9.6
4,CC(=O)SCC(=O)c1ccc(NS(=O)(=O)c2ccc3c(c2)N(C(C)=O)CC3)cc1,4.6
5,COc1cccc(S(=O)(=O)Nc2ccc(C(=O)CSC(C)=O)cc2)c1,2.6
6,CC(=O)SCC(=O)c1ccc(S(=O)(=O)Nc2ccc(OC(F)(F)F)cc2)cc1,16.1
7,CC(=O)SCC(=O)c1ccc(NS(=O)(=O)c2ccc3c(c2)CCO3)cc1,3.2
8,CC(=O)SCC(=O)c1ccc(NS(=O)(=O)c2ccc3cc[nH]c3c2)cc1,0.6
9,CC(=O)SCC(=O)c1ccc(NS(=O)(=O)c2ccc3[nH]ccc3c2)cc1,1.5
10,COc1ccc(S(=O)(=O)Nc2ccc(C(=O)CSC(C)=O)cc2)cc1,0.5
11,CC(=O)SCC(=O)c1ccc(NS(=O)(=O)c2ccc(Cl)cc2)cc1,30.8
12,CC(=O)SCC(=O)c1ccc(NS(=O)(=O)c2ccc3c(c2)CCO3)nc1,6.4
13,CC(=O)SCC(=O)c1ccc(NS(=O)(=O)c2ccc3ccccc3c2)cc1,2.6
14,CC(=O)SCC(=O)c1ccc(NS(=O)(=O)c2ccc3c(c2)OCCO3)cc1,0.4
15,CC(=O)SCC(=O)c1ccc(NS(=O)(=O)c2ccc(C)cc2)cc1,6.5
16,CC(=O)SCC(=O)c1ccc(NS(=O)(=O)c2ccc3c(c2)CCN3)cc1,1.1
17,CC(=O)SCC(=O)c1ccc(NS(=O)(=O)c2ccccc2)cc1,15.4
18,CC(=O)SCC(=O)c1ccc(NS(=O)(=O)c2ccc3c(c2)NCC3)cc1,3.3
19,COc1ccc(S(=O)(=O)Nc2ccc(C(=O)CSC(C)=O)cc2)cc1OC,3.2
20,CC(=O)SCC(=O)c1ccc(NS(=O)(=O)c2ccc3c(c2)ncn3C)cc1,1.8
21,CC(=O)SCC(=O)c1ccc(NS(=O)(=O)c2ccccc2)nc1,5.3
22,CC(=O)SCC(=O)c1ccc(NS(=O)(=O)c2ccc3c(c2)OCO3)cc1,1.4
23,CC(=O)SCC(=O)c1ccc(NS(=O)(=O)c2ccc(OC(F)(F)F)cc2)cc1,8.8
24,CC(=O)SCC(=O)c1ccc(NS(=O)(=O)c2ccc3c(c2)ncn3C)nc1,4.9
25,CC(=O)SCC(=O)c1ccc(NS(=O)(=O)c2ccc3c(c2)OCCN3C)cc1,2.6

# Test system: HCT-116
# Assay: Antitumor activity against human HCT116 cells xenografted in nude mouse at 50 mg/kg, po administered once a day for 14 days relative to control
# Assay type: functional
row,Structure (SMILES),T/C [%]
1,CC(=O)SCC(=O)c1ccc(NS(=O)(=O)c2ccc3c(c2)OCCO3)cc1,87
